Here are results for seven compounds from BindingDB's records for doi:10.1021/jm00163a063 (Merrell Dow Research Institute, 1990).

The nature of test [1]: Binding affinity against human Elastase for more active diasteriomer.
In test [2] the target is Neutrophil elastase (Homo sapiens) (UniProt P08246). In words: Binding affinity against human Elastase.
In test [3] the target is Cathepsin G (Rattus norvegicus). The test is described as follows: Binding affinity against rat Cathepsin G.

Each structure is given as a SMILES string. Peptide text beside a SMILES is read from it. * marks the point of attachment. MeOSuc = COC(=O)CCC(=O)*; Cbz = O=C(OCc1ccccc1)*; Boc = CC(C)(C)OC(=O)*; CF3 = FC(F)(F)*

Chain of Neutrophil elastase (Homo sapiens) (P08246 whole entry, looked up): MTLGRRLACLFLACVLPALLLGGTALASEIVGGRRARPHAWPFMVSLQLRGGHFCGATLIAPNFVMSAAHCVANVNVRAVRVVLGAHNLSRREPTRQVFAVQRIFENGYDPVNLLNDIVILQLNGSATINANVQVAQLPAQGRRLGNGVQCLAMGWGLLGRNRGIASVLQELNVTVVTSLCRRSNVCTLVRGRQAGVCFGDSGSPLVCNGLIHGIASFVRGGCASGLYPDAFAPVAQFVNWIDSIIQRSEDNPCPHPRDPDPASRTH

`CCOC(=O)C(F)(F)C(=O)[C@@H](NC(=O)[C@@H]1CCCN1C(=O)[C@H](C)NC(=O)[C@H](C)NC(=O)CCC(=O)OC)C(C)C` returned a Ki in test [1] of 4.3 µM.

The compound `COC(=O)CCC(=O)NCCCC[C@H](NS(=O)(=O)C12CC3CC(CC(C3)C1)C2)C(=O)N1CCC[C@H]1C(=O)N[C@H](C(=O)C(F)(F)F)C(C)C` returned a Ki in test [1] of 0.00058 µM.

On to `COC(=O)C(=O)[C@H](C)NC(=O)[C@@H]1CCCN1C(=O)[C@H](C)NC(=O)[C@@H]1CCCN1C(C)=O`, for which the affinity in test [1] corresponds to a Ki of 0.85 µM.

As to `CC(=O)N[C@@H](C)C(=O)N[C@@H](C)C(=O)N1CCC[C@H]1C(=O)N[C@@H](C)C(=O)C(F)(F)F` (Ac-AAPA-CF3), the affinity in test [2], expressed as Ki, was 24 µM.

With `CC(C)[C@H](NC(=O)[C@@H]1CCCN1C(=O)[C@H](C)NC(=O)[C@H](C)NC(=O)OC(C)(C)C)C(=O)C(F)(F)F` (Boc-AAPV-CF3), in test [1], the Ki was determined as 0.044 µM.

`CC(C)[C@H](NC(=O)[C@@H]1CCCN1C(=O)[C@H](C)NC(=O)[C@H](C)NC(=O)OCc1ccccc1)C(=O)C(F)(F)F` (Cbz-AAPV-CF3): affinity in test [1] was put at a Ki of 0.001 µM.

Take `COC(=O)CCC(=O)N[C@H](C(=O)N1CCC[C@H]1C(=O)N[C@@H](Cc1ccccc1)C(=O)C(F)(F)F)C(C)C` (MeOSuc-Val-Pro-Phe-CF3): in test [3], the Ki amounted to 0.2 µM.

Usually Ki stands for a measure of affinity in units of concentration, obtained from inhibition or displacement. Higher therefore signals weaker binding.
